From PubChem BioAssay AID652266 (Broad Institute, 2013)
Active and inactive are the calls of the source. The rule behind the calls is not given here.

Molecular target: Protein disulfide-isomerase A3 (Homo sapiens) (UniProt P30101)
Experiment: ERp57 (PDIA3) enzyme inhibition – biochemical, dry powder samples, plate reader, selectivity assay, dose response (AID 652266)
Details: purified ERp57 enzyme

Protein disulfide-isomerase A3 (Homo sapiens), sequence (P30101 whole entry, looked up): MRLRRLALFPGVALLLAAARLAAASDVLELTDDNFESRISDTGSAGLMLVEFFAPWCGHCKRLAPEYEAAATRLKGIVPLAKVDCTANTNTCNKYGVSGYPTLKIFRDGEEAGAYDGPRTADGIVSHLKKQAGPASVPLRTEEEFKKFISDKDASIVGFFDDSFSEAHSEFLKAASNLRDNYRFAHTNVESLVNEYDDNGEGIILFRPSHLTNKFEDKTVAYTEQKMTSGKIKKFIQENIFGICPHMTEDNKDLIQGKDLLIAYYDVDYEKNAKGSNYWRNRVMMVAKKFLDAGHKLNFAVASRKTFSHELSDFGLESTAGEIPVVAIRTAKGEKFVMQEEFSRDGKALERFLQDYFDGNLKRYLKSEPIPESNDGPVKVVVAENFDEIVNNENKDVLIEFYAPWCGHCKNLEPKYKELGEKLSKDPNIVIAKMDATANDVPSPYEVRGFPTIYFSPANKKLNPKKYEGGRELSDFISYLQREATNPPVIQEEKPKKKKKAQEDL

Row | AC50 | Compound
1 | > 30 µM (inactive) | CCOC(=O)C1(CCOc2ccccc2)CCN(Cc2ccc(OC)c(Cl)c2)CC1
2 | > 30 µM (inactive) | CC(C)(C)OC(=O)C1(CCOc2ccccc2)CCN(Cc2ccc(O)c(Cl)c2)CC1
3 | > 30 µM (inactive) | CC(C)OC(=O)C1(CCOc2ccccc2)CCN(Cc2ccc(O)c(Cl)c2)CC1
4 | > 30 µM (inactive) | CCN(C)C(=O)C1(CCOc2ccccc2)CCN(Cc2ccc(O)c(Cl)c2)CC1
5 | > 30 µM (inactive) | CCOC(=O)C1(CCOc2ccccc2)CCN(Cc2ccc(O)c(Cl)c2)CC1

Continued, compound first:

Row | Compound | AC50
6 | CCOC(=O)C1(CCOc2ccccc2)CCN(Cc2ccc(O)cc2)CC1 | > 30 µM (inactive)
7 | O=C(NC1CCCC1)C1(CCOc2ccccc2)CCN(Cc2ccc(O)c(Cl)c2)CC1 | > 30 µM (inactive)
8 | C/C1=C\C[C@H](OC(=O)c2ccc(O)cc2)/C(C)=C/[C@@H](O)C(C)(C)CCC1 | > 30 µM (inactive)
9 | C/C1=C\[C@@H](O)C(C)(C)CCCC2(C)OC2C[C@@H]1OC(=O)c1ccc(O)cc1 (some centres not stated) | > 30 µM (inactive)
10 | O=C(Nc1ccccc1)C1(CCOc2ccccc2)CCN(Cc2ccc(O)c(Cl)c2)CC1 | > 30 µM (inactive)
11 | CCOC(=O)C1(CCOc2ccccc2)CCN(C(=O)c2ccc(O)c(Cl)c2)CC1 | > 30 µM (inactive)
12 | CCOC(=O)c1c(CN2CCN(CCO)CC2)n(-c2ccccc2)c2cc(Br)c(O)cc12 | > 30 µM (inactive)
